Columns and labels:
[1] = system: B104 cells; assay: Kinetics of paclitaxel cytotoxicity: single bolus versus constant exposure (MTT); assay type: cell-based, rat
Protocol: It is likely that a single bolus of paclitaxel•antibody conjugate would be delivered because affected cells would not synthesize additional target receptor. Therefore we tested whether a single bolus of paclitaxel would be an effective cytotoxic agent. Cells were exposed to the indicated concentration of paclitaxel for 30 minutes at 4° C. Then, cells were plated in a 96-well plate (Falcon); this group represents treatment with paclitaxel present in a constant manner. The remaining cells were washed free of excess paclitaxel prior to plating; this group represents a single exposure to paclitaxel. […] Optical density readings of MTT were done in an EIA Plate Reader model 2550 (Bio-Rad) at 595 nm.

[2] = system: B104 cells; assay type: in vivo; details: ˜3.5 nM
Protocol: Nude mice (seven weeks old, female) were used to test the effect of paclitaxel or conjugates in tumor progression. Single cell suspensions of B104 cells (10^5/mouse) were injected subcutaneously in the left flank near the rib cage. Tumor growth was monitored daily. […] Mice were then randomized and treatments were initiated in four groups (n=5 in each group). […] All treatments were done by a total of five injections every two days (for a total of ten days). All injections were done IP on the right side to prevent direct contact of the agents to the tumor growing subcutaneously, and to assure that systemic circulation of the drugs was achieved. Measurements of tumor volume were taken using calipers, every day post treatment for a total of 25 days.
The timeline was: day −14 injection of tumors subcutaneously, days −10, −8, −6, −4, −2 injection of drugs or controls, days 0-25 measurement of tumor growth daily.
Statistical significance of differences in tumor growth among the different treatment groups was determined by the student t test using SYSTAT 7.0 software. P value is significant when it is <0.05.

[3] = system: NIH-3T3 cells; assay: MTT cytotoxicity of paclitaxel•MC192, cells that do not express p75; assay type: cell-based, mouse
Protocol: (§1) The survival profile of the cells was measured with the MTT assay 72 hr after plating.

[4] = system: B104 cells; assay: MTT cytotoxicity of paclitaxel•MC192, B104 cells; assay type: cell-based, rat; details: addition of 40 nM MC192
Protocol: as §1

[5] = system: NWT-b3 cells; details: mouse, 72 h
Protocol: (§2) Competition of Doxorubicin-α-IR3 cytotoxicity was done by adding a 10-fold molar excess of α-IR3 antibody. The survival profile of the cells was measured with the MTT assay 72 hr after plating.

[6] = system: KB cells; assay: MTT cytotoxicity of Doxorubicin-mAb α-IR3, KB cells; assay type: cell-based; details: Homo sapiens, 72 h, 3 days, n = 3
Protocol: as §2

[7] = system: KB-V cells; assay: MTT cytotoxicity of Doxorubicin-mAb α-IR3, KB-V cells (p-glycoprotein resistant); assay type: cell-based, human
Protocol: as §2

[8] = system: NIH 3T3 cells; details: mouse fibroblasts
Protocol: as §2

[9] = system: 4-3.6 cells; assay: In vitro survival assay in serum free media (MTT), 4-3.6 cells; assay type: cell-based, rat; details: ˜48 hrs, zVAD 20 nM, conjugate 20 nM VAD equivalent, 1 nM 5C3
Protocol: 4-3.6 cells are placed in serum free media (SFM, PFHM-II, GIBCO, Toronto), where they undergo apoptosis (serum-withdrawal model).
Cells were then cultured for ˜48 hrs. Cell growth/survival was calculated relative to 5% serum (standardized to 100%).

## CC(=O)O[C@H]1C(=O)[C@@]2(C)[C@H]([C@H](OC(=O)c3ccccc3)[C@]3(O)C[C@H](OC(=O)[C@H](O)[C@@H](NC(=O)c4ccccc4)c4ccccc4)C(C)=C1C3(C)C)[C@]1(OC(C)=O)CO[C@@H]1C[C@@H]2O [paclitaxel]
[1]; 20 nM, after 72 and 96 hours of culture
  cytotoxic effect of a single exposure versus constant exposure: significantly less effective than constant exposure
[1]; 30 minutes at 4° C. exposure, several concentrations, MTT 48, 72, 96 hr
  cytotoxic effect, single exposure versus constant presence: generally the same whether the drug is present in the culture throughout or after a single exposure
[2]
  efficacy in vivo at the dose effective for the conjugate: not effective at this dose
[3]
  cytotoxicity on cells that do not express p75: dose-dependent cytotoxicity
[4]
  cytotoxicity under ligand competition: same cytotoxicity whether or not 40 nM of mouse IgG or 40 nM of MC192 antibody were added

## COc1cccc2c1C(=O)c1c(O)c3c(c(O)c1C2=O)C[C@@](O)(C(=O)CO)C[C@@H]3O[C@H]1C[C@H](N)[C@H](O)[C@H](C)O1 [Doxorubicin]
[5]
  cytotoxicity under ligand competition: same cytotoxicity whether excess of mlg or α-IR3 was present or not
[6]
  IC50: 60 ± 2 nM
[7]; Homo sapiens, KBV, 72 h, KB-V cells, 3 days, MTT, n = 3
  IC50: > 320 nM
[7]; KB-V compared to sensitive KB cells, with or without Verapamil
  cytotoxicity on multidrug resistant cells: inactive on KB-V cells unless Verapamil was added
[8]
  cytotoxicity on cells that do not express IGF-IR: dose-dependent cytotoxicity

## benzoic acid-Valine-Alanine-Aspartic acid-O-methyl-fluoromethylketone peptide [zVAD]
[9]
  4-3.6 Cell Survival (MTT, % of serum control): −2 ± 3 % of serum control

Source: US20040115209A1, “Compound targeted for specific cells with reduced systemic toxicity” (priority 2000, published 2004)
